Values quoted from earlier work in patent US20030083360A1, “Compaction process for manufacture of sodium phenytoin dosage form” (priority 2001, published 2003).
Like-named read-outs stand apart in the source and are kept apart here.

Structure (SMILES) | solubility in water | solubility in water (listed as free-phenytoin)
O=C1NC(=O)C(c2ccccc2)(c2ccccc2)N1 [phenytoin, 5,5-diphenyl-2,4-imidazolidinedione] | poor solubility in water | practically insoluble in water
O=C1N=C([O-])NC1(c1ccccc1)c1ccccc1.[Na+] [sodium phenytoin] | much more soluble | 
